Data: patent US6924296B2, “Antithrombotic agents” (Eli Lilly and Company, priority 2000, dated 2005)
Counter-ions that a name gives are not always drawn.

Target: human factor Xa (Homo sapiens, UniProt P00742)
Assay: Factor Xa chromogenic substrate inhibitor binding affinity assay (apparent Kass)
Settings: 1.34 nM human factor Xa, 0.18 mM BzIle-Glu-Gly-Arg-pNA; mean value; read-out: Kass (apparent association constant) (converted)
Procedure: The inhibition by a compound of the inhibition of a serine protease of the human blood coagulation system or of the fibrinolytic system, as well as of trypsin, is determined in vitro for the particular enzyme by measuring its inhibitor binding affinity in an assay in which the enzyme hydrolyzes a particular chromogenic substrate, for example as described in Smith, G. F.; Gifford-Moore, D.; Craft, T. J.; Chirgadze, N.; Ruterbories, K. J.; Lindstrom, T. D.; Satterwhite, J. H. Efegatran: A New Cardiovascular Anticoagulant. New Anticoagulants for the Cardiovascular Patient; Pifarre, R., Ed.; Hanley & Belfus, Inc.: Philadelphia, 1997; pp. 265-300. The inhibitor binding affinity is measured as apparent association constant Kass which is the hypothetical equilibrium constant for the reaction between enzyme and the test inhibitor compound (I).
Enzyme+I⇄Enzyme−I [formula]
Conveniently, enzyme inhibition kinetics are performed in 96-well polystyrene plates and reaction rates are determined from the rate of hydrolysis of appropriate p-nitroanilide substrates at 405 nm using a Thermomax plate reader from Molecular Devices (San Francisco, Calif.). […] The rates of chromogenic substrate hydrolysis reactions provide a linear relationship with the enzymes studied such that free enzyme can be quantitated in reaction mixtures. […]

human factor Xa, sequence (P00742 235-488 limits assumed): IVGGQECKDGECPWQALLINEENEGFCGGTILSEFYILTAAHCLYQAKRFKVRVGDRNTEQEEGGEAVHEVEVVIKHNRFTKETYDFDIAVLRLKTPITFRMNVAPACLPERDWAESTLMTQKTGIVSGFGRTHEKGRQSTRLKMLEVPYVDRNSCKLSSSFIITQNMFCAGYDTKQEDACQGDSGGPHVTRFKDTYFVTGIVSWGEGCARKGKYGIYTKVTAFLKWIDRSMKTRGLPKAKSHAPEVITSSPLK
human factor Xa, sequence (P00742 41-179 partner limits assumed): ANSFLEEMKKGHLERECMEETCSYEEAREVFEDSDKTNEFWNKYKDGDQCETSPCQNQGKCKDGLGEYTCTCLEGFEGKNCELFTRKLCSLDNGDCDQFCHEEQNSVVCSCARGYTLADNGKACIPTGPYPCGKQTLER

`O=C(NC1CCN(C(=O)C2CCN(c3ccncc3)CC2)C1)c1ccc2cc[nH]c2c1` (stereo not shown) [Example 1, 3-[(6-Indolyl)carbonyl]amino-1-[[1-(4-pyridinyl)piperidin-4-yl]carbonyl]pyrrolidine Hydrochloride Salt] was tested, and the Kd was 472 nM.
